Experimental findings from ChEMBL document CHEMBL5291721, “A preclinical secondary pharmacology resource illuminates target-adverse drug reaction associations of marketed drugs” (Nat Commun, 2023) are described below.

Structures are written as SMILES. Some results are limits rather than exact numbers.

Test [1] concerns the target D(1A) dopamine receptor (Homo sapiens, UniProt P21728). The test is classed as functional, cell-based.
Test [2] has as its target T1, Estrogen receptor (Homo sapiens, UniProt P03372).
T1 sequence (P03372 whole entry): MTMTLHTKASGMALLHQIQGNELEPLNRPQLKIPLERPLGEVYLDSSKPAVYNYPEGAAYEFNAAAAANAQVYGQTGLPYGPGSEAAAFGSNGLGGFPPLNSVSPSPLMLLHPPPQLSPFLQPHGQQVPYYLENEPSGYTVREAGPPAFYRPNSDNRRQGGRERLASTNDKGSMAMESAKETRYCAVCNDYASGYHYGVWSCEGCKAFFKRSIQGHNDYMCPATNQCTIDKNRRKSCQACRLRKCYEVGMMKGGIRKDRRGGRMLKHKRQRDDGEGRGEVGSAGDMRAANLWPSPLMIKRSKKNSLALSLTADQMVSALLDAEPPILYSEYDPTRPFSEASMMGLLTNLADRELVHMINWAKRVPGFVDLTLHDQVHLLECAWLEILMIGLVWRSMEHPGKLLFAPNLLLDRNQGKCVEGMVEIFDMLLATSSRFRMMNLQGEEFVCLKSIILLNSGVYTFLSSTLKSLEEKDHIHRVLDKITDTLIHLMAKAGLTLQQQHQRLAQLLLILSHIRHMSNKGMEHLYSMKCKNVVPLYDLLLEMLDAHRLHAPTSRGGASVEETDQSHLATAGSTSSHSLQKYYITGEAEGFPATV

Test [3] deals with Sodium-dependent dopamine transporter (Homo sapiens, UniProt Q01959).
Test [4] has as its target 5-hydroxytryptamine receptor 2B (Homo sapiens, UniProt P41595). The format is functional, cell-based.
The target in test [5] is Gamma-aminobutyric acid receptor subunit alpha-1 (Rattus norvegicus, UniProt P62813).
Test [6] concerns the target 3',5'-cyclic-AMP phosphodiesterase 4D (Homo sapiens, UniProt Q08499). The format is functional.
Test [7] has as its target T2, Equilibrative nucleoside transporter 1 (Homo sapiens, UniProt Q99808).
T2 sequence (Q99808 whole entry): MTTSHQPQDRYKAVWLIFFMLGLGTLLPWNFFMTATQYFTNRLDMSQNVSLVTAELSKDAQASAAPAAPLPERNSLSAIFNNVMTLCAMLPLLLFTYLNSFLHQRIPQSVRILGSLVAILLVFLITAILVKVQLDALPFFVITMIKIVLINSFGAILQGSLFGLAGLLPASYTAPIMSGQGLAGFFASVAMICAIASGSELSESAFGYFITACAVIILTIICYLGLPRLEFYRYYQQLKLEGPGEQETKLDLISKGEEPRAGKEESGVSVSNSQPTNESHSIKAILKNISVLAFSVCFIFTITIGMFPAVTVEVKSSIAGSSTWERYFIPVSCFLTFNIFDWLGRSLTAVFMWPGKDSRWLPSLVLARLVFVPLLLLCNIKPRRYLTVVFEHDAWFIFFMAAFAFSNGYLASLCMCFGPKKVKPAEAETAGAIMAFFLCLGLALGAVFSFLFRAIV

The target of test [8] is T3, Type-1 angiotensin II receptor (Homo sapiens, UniProt P30556).
T3 sequence (P30556 whole entry): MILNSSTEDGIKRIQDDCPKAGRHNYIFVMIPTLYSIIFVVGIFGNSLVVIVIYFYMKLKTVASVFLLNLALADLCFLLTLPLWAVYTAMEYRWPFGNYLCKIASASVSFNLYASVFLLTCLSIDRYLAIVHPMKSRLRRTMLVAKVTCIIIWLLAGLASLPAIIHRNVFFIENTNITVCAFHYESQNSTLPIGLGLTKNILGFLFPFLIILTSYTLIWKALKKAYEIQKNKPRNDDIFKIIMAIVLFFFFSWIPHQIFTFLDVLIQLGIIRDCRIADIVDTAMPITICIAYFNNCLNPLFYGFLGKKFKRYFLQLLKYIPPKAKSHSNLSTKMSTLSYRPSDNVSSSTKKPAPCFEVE

The target of test [9] is Histamine H3 receptor (Homo sapiens, UniProt Q9Y5N1).
Test [10] concerns the target T4, Alpha-2C adrenergic receptor (Homo sapiens, UniProt P18825).
T4 sequence (P18825 whole entry): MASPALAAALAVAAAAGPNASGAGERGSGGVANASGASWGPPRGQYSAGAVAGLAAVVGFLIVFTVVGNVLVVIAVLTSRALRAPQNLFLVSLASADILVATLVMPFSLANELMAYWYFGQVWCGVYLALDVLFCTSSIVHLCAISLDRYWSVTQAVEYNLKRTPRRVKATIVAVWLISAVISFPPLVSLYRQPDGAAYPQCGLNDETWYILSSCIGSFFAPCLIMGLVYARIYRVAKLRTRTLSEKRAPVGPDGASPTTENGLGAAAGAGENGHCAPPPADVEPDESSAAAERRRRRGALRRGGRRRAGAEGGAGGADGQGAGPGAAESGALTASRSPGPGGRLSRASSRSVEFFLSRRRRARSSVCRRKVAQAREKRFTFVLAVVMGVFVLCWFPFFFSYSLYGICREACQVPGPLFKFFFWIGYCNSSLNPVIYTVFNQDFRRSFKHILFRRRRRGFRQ
The format is functional.

The target in test [11] is Vasopressin V1a receptor (Homo sapiens, UniProt P37288).
Test [12] has as its target Voltage-gated inwardly rectifying potassium channel KCNH2 (Homo sapiens, UniProt Q12809). The format is functional. The note with it: read-out: AC50.
Test [13] addresses T5, Muscarinic acetylcholine receptor M1 (Homo sapiens, UniProt P11229).
T5 sequence (P11229 whole entry): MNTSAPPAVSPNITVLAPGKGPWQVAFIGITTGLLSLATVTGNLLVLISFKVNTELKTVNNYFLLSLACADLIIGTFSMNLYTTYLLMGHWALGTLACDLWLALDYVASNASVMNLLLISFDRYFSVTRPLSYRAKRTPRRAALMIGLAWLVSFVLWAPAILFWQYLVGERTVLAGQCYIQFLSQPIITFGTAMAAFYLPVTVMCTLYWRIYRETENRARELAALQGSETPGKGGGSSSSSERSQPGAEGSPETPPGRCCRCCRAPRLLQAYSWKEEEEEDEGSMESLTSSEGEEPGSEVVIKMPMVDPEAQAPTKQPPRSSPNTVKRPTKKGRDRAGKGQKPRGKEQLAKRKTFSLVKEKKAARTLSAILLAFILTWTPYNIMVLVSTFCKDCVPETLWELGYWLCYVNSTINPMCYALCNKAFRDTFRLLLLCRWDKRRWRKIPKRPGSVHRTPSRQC
The format is functional.
Note: assay procedure not described here.

5-hydroxytryptamine receptor 2B, sequence (P41595 whole entry): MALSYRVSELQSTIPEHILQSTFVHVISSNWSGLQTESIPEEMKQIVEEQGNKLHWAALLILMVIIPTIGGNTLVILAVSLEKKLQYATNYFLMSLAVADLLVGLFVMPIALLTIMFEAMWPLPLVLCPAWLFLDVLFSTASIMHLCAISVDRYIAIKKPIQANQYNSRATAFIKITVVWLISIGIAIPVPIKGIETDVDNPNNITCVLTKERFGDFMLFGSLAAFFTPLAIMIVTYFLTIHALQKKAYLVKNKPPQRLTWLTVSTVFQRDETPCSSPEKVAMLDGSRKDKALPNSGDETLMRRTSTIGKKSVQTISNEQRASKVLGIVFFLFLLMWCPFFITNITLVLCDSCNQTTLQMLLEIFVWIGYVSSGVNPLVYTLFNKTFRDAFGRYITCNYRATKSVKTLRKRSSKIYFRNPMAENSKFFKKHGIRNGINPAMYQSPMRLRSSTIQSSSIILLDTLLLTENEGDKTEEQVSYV
Sodium-dependent dopamine transporter, sequence (Q01959 whole entry): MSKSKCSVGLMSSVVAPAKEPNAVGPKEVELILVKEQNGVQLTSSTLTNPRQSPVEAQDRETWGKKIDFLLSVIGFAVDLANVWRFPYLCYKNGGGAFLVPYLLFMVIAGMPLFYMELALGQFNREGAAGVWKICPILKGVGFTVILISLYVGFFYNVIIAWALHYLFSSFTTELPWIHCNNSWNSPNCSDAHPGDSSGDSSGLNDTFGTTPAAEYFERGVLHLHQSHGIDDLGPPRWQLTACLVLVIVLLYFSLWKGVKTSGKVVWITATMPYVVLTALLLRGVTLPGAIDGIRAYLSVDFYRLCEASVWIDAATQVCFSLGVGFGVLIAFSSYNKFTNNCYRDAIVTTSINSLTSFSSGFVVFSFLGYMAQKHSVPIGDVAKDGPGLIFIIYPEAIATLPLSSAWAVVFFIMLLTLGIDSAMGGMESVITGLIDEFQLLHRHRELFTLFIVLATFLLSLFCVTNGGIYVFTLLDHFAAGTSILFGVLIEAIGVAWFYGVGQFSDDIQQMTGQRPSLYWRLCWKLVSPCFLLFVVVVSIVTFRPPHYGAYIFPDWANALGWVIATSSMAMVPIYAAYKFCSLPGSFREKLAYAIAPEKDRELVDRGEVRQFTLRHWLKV
3',5'-cyclic-AMP phosphodiesterase 4D, sequence (Q08499 whole entry): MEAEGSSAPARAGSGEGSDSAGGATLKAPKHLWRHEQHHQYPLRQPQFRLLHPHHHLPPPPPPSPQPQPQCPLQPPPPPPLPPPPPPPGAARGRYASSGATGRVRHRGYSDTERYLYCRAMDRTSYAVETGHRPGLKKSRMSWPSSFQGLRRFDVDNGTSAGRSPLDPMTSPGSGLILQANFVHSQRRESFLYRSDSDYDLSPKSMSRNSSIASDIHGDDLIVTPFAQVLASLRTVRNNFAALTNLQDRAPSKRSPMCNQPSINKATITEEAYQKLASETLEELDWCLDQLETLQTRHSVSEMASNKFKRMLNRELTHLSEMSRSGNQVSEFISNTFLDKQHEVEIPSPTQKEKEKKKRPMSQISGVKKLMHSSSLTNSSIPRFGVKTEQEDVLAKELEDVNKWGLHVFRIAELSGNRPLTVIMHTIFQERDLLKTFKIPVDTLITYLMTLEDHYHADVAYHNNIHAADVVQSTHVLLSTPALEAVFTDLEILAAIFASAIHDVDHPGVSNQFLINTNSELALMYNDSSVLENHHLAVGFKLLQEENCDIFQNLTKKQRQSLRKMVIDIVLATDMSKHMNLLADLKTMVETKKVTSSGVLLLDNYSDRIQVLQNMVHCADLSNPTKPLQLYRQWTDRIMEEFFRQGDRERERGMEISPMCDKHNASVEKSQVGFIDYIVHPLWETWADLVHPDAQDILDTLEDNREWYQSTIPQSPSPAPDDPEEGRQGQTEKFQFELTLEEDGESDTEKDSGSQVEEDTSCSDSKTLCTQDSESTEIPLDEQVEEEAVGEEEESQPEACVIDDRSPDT
Vasopressin V1a receptor, sequence (P37288 whole entry): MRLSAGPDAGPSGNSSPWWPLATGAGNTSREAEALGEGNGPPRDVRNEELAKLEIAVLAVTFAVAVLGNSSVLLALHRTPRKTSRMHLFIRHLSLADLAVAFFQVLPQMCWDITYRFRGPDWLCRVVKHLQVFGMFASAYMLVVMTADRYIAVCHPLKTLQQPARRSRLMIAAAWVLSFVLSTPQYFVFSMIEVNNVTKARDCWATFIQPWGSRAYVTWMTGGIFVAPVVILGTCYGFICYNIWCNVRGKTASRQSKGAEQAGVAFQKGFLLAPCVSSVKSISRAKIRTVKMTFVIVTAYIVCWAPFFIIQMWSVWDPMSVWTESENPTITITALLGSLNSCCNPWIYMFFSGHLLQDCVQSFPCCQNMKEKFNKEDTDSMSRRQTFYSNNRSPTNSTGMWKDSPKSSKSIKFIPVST
D(1A) dopamine receptor, sequence (P21728 whole entry): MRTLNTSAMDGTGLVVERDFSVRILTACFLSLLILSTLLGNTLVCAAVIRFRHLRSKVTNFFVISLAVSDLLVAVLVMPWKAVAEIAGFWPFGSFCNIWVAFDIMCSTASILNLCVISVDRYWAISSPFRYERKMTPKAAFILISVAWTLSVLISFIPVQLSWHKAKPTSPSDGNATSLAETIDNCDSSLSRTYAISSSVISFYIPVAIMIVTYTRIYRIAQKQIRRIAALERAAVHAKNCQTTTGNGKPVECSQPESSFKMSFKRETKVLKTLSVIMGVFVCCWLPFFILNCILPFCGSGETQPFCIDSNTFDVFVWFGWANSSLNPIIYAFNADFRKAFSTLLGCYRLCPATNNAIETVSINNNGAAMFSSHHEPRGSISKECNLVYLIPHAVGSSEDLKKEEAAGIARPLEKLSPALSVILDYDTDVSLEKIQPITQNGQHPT
Voltage-gated inwardly rectifying potassium channel KCNH2, sequence (Q12809 whole entry): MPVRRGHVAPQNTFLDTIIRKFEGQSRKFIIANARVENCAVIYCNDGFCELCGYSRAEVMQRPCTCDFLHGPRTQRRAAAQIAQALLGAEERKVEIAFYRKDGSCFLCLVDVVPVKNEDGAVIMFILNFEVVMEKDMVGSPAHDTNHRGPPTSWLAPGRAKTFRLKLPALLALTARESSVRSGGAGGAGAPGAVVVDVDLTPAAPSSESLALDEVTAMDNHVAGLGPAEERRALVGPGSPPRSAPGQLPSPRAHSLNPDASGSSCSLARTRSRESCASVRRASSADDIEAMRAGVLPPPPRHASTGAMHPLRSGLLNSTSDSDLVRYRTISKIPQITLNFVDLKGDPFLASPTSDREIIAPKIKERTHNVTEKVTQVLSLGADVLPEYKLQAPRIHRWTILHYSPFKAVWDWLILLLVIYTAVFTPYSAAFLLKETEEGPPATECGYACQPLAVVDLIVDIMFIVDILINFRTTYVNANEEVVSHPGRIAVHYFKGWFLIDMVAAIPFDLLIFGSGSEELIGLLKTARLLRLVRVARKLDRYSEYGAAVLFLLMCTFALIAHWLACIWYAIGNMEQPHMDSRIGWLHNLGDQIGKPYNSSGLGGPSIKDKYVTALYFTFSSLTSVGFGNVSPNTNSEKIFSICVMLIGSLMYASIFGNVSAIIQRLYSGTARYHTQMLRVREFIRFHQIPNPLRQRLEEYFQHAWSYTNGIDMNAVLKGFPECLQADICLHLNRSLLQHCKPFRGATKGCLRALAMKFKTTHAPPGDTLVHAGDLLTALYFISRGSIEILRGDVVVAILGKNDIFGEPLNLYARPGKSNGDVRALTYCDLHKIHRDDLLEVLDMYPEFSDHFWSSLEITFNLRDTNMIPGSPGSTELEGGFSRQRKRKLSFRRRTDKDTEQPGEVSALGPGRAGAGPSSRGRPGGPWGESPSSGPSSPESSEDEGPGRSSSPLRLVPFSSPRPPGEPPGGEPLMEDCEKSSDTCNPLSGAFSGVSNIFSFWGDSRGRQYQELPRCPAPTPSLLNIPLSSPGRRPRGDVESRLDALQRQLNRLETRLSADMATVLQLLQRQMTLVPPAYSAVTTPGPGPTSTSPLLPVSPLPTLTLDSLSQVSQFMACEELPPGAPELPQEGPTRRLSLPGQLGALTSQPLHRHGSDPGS
Histamine H3 receptor, sequence (Q9Y5N1 whole entry): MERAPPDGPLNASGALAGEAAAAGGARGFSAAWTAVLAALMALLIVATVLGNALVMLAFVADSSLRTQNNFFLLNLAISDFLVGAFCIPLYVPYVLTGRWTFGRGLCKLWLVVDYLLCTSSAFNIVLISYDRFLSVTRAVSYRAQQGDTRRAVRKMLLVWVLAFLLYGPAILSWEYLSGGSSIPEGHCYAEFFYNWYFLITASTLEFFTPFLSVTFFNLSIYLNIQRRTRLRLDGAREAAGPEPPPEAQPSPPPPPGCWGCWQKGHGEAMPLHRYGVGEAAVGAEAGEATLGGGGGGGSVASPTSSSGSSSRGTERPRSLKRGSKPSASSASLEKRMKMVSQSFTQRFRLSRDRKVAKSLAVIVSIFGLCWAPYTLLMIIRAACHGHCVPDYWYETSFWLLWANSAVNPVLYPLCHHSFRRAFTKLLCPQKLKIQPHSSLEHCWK
Gamma-aminobutyric acid receptor subunit alpha-1, sequence (P62813 whole entry): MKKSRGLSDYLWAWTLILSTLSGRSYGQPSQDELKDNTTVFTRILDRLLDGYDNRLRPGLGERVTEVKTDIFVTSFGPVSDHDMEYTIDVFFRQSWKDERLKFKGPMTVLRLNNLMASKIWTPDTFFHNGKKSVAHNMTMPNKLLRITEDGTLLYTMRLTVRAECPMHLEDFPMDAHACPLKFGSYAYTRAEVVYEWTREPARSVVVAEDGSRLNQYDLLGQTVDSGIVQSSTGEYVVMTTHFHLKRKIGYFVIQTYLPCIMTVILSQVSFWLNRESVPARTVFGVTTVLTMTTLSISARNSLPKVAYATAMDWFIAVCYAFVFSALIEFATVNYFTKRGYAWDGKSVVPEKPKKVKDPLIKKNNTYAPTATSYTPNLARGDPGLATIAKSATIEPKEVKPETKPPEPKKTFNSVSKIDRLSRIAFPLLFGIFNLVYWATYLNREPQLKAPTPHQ

Take `COc1ccc(/C=C/C(=O)Nc2ccccc2C(=O)O)cc1OC`: the AC50 – broadly, the midpoint of the concentration-response curve, whichever way the signal moves – in [1] is greater than 30 µM; in [2] it was greater than 30 µM; in [3], greater than 30 µM; in [4] it was greater than 30 µM; in [5] it was greater than 30 µM; in test [6] it was 21 µM. Further, the AC50 in test [7], in test [8], in [9] and in test [10] was greater than 30 µM in each case.
With `CC(=O)OCC(CCn1cnc2cnc(N)nc21)COC(C)=O` [FAMCICLOVIR], the AC50 was greater than 10 µM in test [1]; greater than 30 µM in test [2]; greater than 10 µM in test [3]; greater than 10 µM in test [11]; greater than 10 µM in test [4]; greater than 10 µM in test [5]. For the same molecule, the AC50 is greater than 30 µM in test [6]; greater than 30 µM in [7]; greater than 30 µM in test [8]; greater than 10 µM in test [9]; greater than 30 µM in test [12]; greater than 10 µM in test [10].
With `Nc1ccn([C@@H]2O[C@H](CO)[C@@H](O)C2(F)F)c(=O)n1` [GEMCITABINE], the AC50 in test [1] is greater than 10 µM; in test [2] it was greater than 30 µM; in test [3], greater than 30 µM; in test [11], greater than 30 µM; in test [4] it was greater than 10 µM; in test [5] it was greater than 10 µM. Besides, the AC50 in [6] is 16 µM; in test [8], greater than 30 µM; in test [9] it was greater than 10 µM; in test [12], greater than 30 µM; in test [10], greater than 10 µM.
With `C#C[C@]1(O)CC[C@H]2[C@@H]3CCC4=CC(=O)CCC4=C3C=C[C@@]21CC` [GESTRINONE], the AC50 was greater than 30 µM in test [13]; greater than 30 µM in test [1]; 6.1 µM in test [2]; 25 µM in test [3]; greater than 30 µM in test [11]; greater than 30 µM in test [4]. In addition, the AC50 in [5] is greater than 30 µM; in test [6] it was 4.1 µM; in [8], greater than 30 µM; in test [9], greater than 30 µM; in test [12], greater than 30 µM; in [10], greater than 30 µM.
Consider `COC1=C(OC)C(=O)C(CCCCCCCCCCO)=C(C)C1=O` [IDEBENONE], for which the AC50 in test [1] is greater than 30 µM; in test [2], greater than 30 µM; in test [3] it was greater than 10 µM; in test [11], greater than 10 µM; in test [4], greater than 10 µM; in test [5] it was greater than 10 µM. Moreover, the AC50 was greater than 10 µM in test [6]; 21.9 µM in test [7]; greater than 30 µM in [8]; greater than 10 µM in test [9]; greater than 30 µM in [12]; greater than 10 µM in [10].
On to `CCn1cc(C(=O)O)c(=O)c2cc(F)c(N3CCN(C)CC3)cc21` [PEFLOXACIN], for which the AC50 in test [1], in test [2], in [3], in test [4], in [5] and in test [6] was greater than 30 µM each time. Further, the AC50 in [7], in test [8], in [9] and in [10] was greater than 30 µM each time.
For the molecule `CCCNC(C)C(=O)Nc1ccccc1C` (configuration not stated) [PRILOCAINE], the AC50 in test [1], in test [2], in [3], in [4], in test [6] and in test [7] was greater than 30 µM in each case. Also, the AC50 in [8], in [9], in [12] and in test [10] was greater than 30 µM throughout.
`Cc1ccc2c(-c3ccccc3)nc(=O)n(C(C)C)c2c1` [PROQUAZONE]: the AC50 in test [13], in test [1], in test [2], in test [3], in test [11] and in test [4] was greater than 30 µM throughout. The AC50 is greater than 30 µM in [5]; 0.81 µM in [6]; greater than 30 µM in [8]; greater than 30 µM in [9]; greater than 30 µM in test [12]; greater than 30 µM in [10].
As to `[H]/N=C(/N)N[C@H]1[C@H](O)[C@@H](O)[C@H](O[C@@H]2O[C@@H](C)[C@](O)(C=O)[C@H]2O[C@@H]2O[C@@H](CO)[C@H](O)[C@@H](O)[C@@H]2NC)[C@@H](N/C(N)=N\[H])[C@@H]1O` [STREPTOMYCIN], the concentration at half-maximal activity (AC50) in test [1], in test [2], in test [3], in test [11], in test [4] and in test [5] was greater than 30 µM throughout. In addition, the AC50 in test [6], in test [7], in test [8], in test [9], in [12] and in [10] was greater than 30 µM each time.
For `CN1c2ccccc2C(NCCCCCCC(=O)O)c2ccc(Cl)cc2S1(=O)=O` (configuration not stated) [TIANEPTINE], the AC50 in [13], in test [1], in test [2], in [3], in [11] and in test [4] was greater than 30 µM in each case. Moreover, the AC50 in test [5], in test [6], in [8], in test [9] and in [10] was greater than 30 µM each time.
With `Cc1cccc(N(C)C(=S)Oc2ccc3ccccc3c2)c1` [TOLNAFTATE], the AC50 is greater than 30 µM in test [1]; greater than 30 µM in test [2]; greater than 10 µM in test [3]; greater than 10 µM in test [4]; greater than 10 µM in test [5]; greater than 30 µM in test [6]. In addition, the AC50 in [7] was greater than 10 µM; in [8], greater than 10 µM; in [12] it was greater than 30 µM; in test [10] it was greater than 30 µM.
